Tests used:
plasma = assay: Inhibition of plasma lipid peroxidation (cupric sulfate induced, thiobarbituric acid assay, method of Yagi et al.); type: biochemical; conditions: 0.1 mL of plasma, cupric sulfate 2 mM, 37°C for 2.5 hours or 18 hours; for IC50: read-out: Plas.Lipid Perox. IC₅₀; for Plas.Lipid Perox. ID₅₀: dose required to inhibit 50% of plasma lipid peroxidation
Experimental: (§1) Determine the degree of inhibition of LDL and plasma lipid peroxidation by [8]-gingerol and anti-[8]-gingerdiol by the method of Yagi et al. [Vitamins 39, 105 (1968)].
(§2) Incubate a 0.5 mL solution containing 250 micrograms (µg) of LDL or 0.1 mL of plasma with the test compound, in amounts varying from 0 to 250 µg, for 30 minutes at 24°C. To this mixture add 10 µL of a cupric sulfate solution (final concentration 18 µM in LDL assay, 2 mM in plasma assay) and incubate at 37°C for 2.5 hours or 18 hours. Determine the amount of peroxidation of LDL or plasma by the thiobarbituric acid assay. Calculate the dose of test compound required to inhibit 50% of LDL or plasma lipid peroxidation (ID₅₀) and the concentration of test compound required to inhibit 50% of LDL or plasma lipid peroxidation (IC₅₀).

LDL = assay: Inhibition of LDL lipid peroxidation (cupric sulfate induced, thiobarbituric acid assay, method of Yagi et al.); type: biochemical; conditions: 250 µg LDL in 0.5 mL, cupric sulfate 18 µM, 37°C for 2.5 hours or 18 hours; for IC50: read-out: LDL Perox. IC₅₀; for LDL Perox. ID₅₀: dose required to inhibit 50% of LDL peroxidation
Experimental: as §1, §2

[1] = Effect on serum cholesterol in the cholesterol-fed rabbit; type: in vivo
Text: Feed rabbits with 1% cholesterol (w/w) in standard rabbit chow supplemented with (n=5) or without (n=8) 0.5% anti-[8]-gingerdiol (w/w). Each rabbit consumes 120 grams of food per day. Collect blood samples and determine cholesterol in freshly prepared serum using an enzymatic method described by Mao et al., Clin.Chem 29, 1890 (1983).

aortas = assay: Antiatherogenic effect in the cholesterol-fed rabbit (Sudan IV stained aortic lesions); type: in vivo; conditions: rabbits fed 1% cholesterol chow with 0.5% (w/w) compound for 56 days, n=5
Text: Feed rabbits with 1% cholesterol (w/w) in standard rabbit chow supplemented with (n=5) or without (n=6) 0.5% anti-[8]-gingerdiol (w/w) for 56 days. Each rabbit consumes 120 grams of food per day. Immediately following sacrifice by intravenous injection of sodium pentobarbital, dissect the aortas from the ascending arch to the […] bifurcation.
Remove extraneous adipose tissue, open the aortas longitudinally and rinse several times with saline. Stain the aortas with Sudan IV and photograph using the method described by Mao et al. [J.Med.Chem. 34, 302 (1991)]. Digitize the areas of sudanophilic lesions in the thoracic region of the aorta with a Magiscan image analysis system. Distinguish stained versus unstained areas on the basis of Sudan Red staining. Quantitate the corresponding lesioned and unlesioned areas accordingly.

Row | IC50 (plasma) | IC50 (LDL) | Compound | Plas.Lipid Perox. ID₅₀ (plasma) | LDL Perox. ID₅₀ (LDL) | Cholesterol (mg/dL±SEM) Day 0 ([1]; Day 0 (baseline), rabbits fed 1% cholesterol chow with 0.5% (w/w) compound, n=5) | Cholesterol (mg/dL±SEM) Day 10 ([1]; Day 10, rabbits fed 1% cholesterol chow with 0.5% (w/w) compound, n=5, control 790 ± 103) | Cholesterol (mg/dL±SEM) Day 28 ([1]; Day 28, rabbits fed 1% cholesterol chow with 0.5% (w/w) compound, n=5, control 2177 ± 97) | % Lesions (±SEM) in Abdominal (aortas; abdominal aorta, control 28 ± 7) | % Lesions (±SEM) in Arch (aortas; aortic arch, control 83 ± 7) | % Lesions (±SEM) in Thoracic (aortas; thoracic aorta, control 62 ± 8)
1 | 8.3 µM | 109 µM | CCCCCCCC(O)CC(=O)CCc1ccc(O)c(OC)c1 (centres unmarked) [[8]-Gingerol, 1-(4'-Hydroxy-3'-methoxyphenyl)-5-hydroxy-3-dodecanone] | 5 nmol | 60 nmol |  |  |  |  |  | 
2 | 16.6 µM | 72 µM | CCCCCCCC(O)CC(O)CCc1ccc(O)c(OC)c1 (stereo not drawn) [anti-[8]-Gingerdiol, Anti-1-(4'-hydroxy-3'-methoxyphenyl)-3,5-dodecanediol] | 10 nmol | 40 nmol | 82 ± 12 mg/dL | 515 ± 154 mg/dL | 1615 ± 216 mg/dL | 24 ± 10% | 73 ± 12% | 38 ± 16%
